# Data reported in EP4759807A1, “PROTEOLYSIS TARGETING CHIMERA COMPOUND FOR DEGRADING IRAK4 AND USE THEREOF” (Shenzhen Zhongge Biological Technology Co., Ltd., priority 2023, dated 2025).
# Like-named read-outs stand apart in the source and are kept apart here.
# Assays:
# CYP2C9 = target: T1, CYP2C9 (Homo sapiens, UniProt P11712); assay: Inhibitory effect on human liver microsome CYP450 enzyme; type: in vitro ADME; conditions: human liver microsomes, substrate Diclofenac Sodium
# T1 construct: 0.05 mg/mL liver microsomes (BioIVT, IHG) phosphate buffer solution; tissue BioIVT IHG; host or cells: human liver microsomes
# T1 sequence (P11712 whole entry): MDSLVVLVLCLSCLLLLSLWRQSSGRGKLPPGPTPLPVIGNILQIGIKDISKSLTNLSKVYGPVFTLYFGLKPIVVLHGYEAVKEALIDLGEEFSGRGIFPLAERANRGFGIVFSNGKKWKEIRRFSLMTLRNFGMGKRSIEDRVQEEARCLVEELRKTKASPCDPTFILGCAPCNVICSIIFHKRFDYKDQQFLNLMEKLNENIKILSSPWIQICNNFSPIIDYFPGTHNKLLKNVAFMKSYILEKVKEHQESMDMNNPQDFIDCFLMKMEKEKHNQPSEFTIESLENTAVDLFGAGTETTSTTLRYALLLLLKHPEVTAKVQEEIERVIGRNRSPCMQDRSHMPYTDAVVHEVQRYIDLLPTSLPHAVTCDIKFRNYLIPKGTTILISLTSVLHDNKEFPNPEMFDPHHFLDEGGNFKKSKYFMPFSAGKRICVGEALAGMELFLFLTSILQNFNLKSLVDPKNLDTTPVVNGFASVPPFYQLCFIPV
# Procedure: (§1) In this experiment, the compound, liver microsomes and different CYP isoform enzyme substrates were incubated in a 37°C water bath, the amount of substrate metabolites generated was measured, and the inhibitory effect of the compound of the present disclosure on CYP enzyme was evaluated based on the IC50 value.
# (§2) i. The compound was diluted with DMSO (Aladdin, catalog number: D103273-500ml) to concentrations of 0, 0.02, 0.06, 0.2, 0.6, 2 and 6 mM. The positive reference inhibitors for each CYP isoform and their concentrations are shown in Table 4 Table 4 Positive reference inhibitors for CYP isoform enzymes and their concentrations
# (§3) ii. Phosphate buffer (sigma: V900050-500G) was used to formulate the substrate solution for each CYP isoform enzyme. Table 5 The substrate and the concentration thereof for CYP isoform enzyme
# (§4) iii. Sample incubation. 1 µL of each concentration of the compound and positive reference inhibitor for CYP isoform enzyme were taken and placed into a 96-deep well plate (A-gen: P-1.0-RD-96-S), and 169 µL of 0.05 mg/mL liver microsomes (BioIVT, IHG) phosphate buffer solution (using 0.2 mg/mL liver microsomes for CYP2C19) was added. After uniform mixing, the plate was placed in a 37°C water bath (Shanghai Jinghong Experimental Equipment Co., Ltd., DK-500) with shaking for pre-incubation for 15 min. 10 µL of substrate (adding 1 µL of substrate for CYP3A4-Testosterone) and 20 µL of 10 mM NADPH phosphate buffer solution (MCE, HYF003/CS-4998) were added. After uniform mixing, the plate was incubated in a water bath with shaking for the following time: CYP1A2: 20 min, CYP2C9: 10 min, CYP2C19: 10 min, CYP2D6: 10 min, CYP3A4-Testosterone: 10 min, CYP3A4-Midazolam: 5 min. 400 µL of glacial acetonitrile/methanol (v/v, 1:1) containing an internal standard (500 nM tolbutamide, 5 nM terfenadine) was added to terminate the reaction. After centrifugation at 4000 rpm at 4°C for 40 min, the supernatant was taken and diluted with pure water according to the response of the metabolite of the substrate, and then UPLC-MS/MS (Sciex, Q-Trap 4500) was used for detection to obtain the peak area. The C18 chromatographic column was Kinetex 2.6u C18 100A (50 mm*3 mm).
# (§5) The inhibitory effect of the compound on each P450 enzyme in human liver microsomes was calculated as the percentage of reduced metabolite formation compared with the non-inhibitory control (i.e. blank DMSO). The IC50 value of the compound for each P450 enzyme in human liver microsomes was calculated with the logarithm of the remaining activity and the inhibitor concentration using Graphpad Prism software. The calculation equation was as follows: Peak area ratio = compound peak area / internal standard peak area [formula] [formula]
# (§6) In Graphpad Prism software, the IC50 value was calculated using the standard four-parameter curve fitting algorithm.
# CYP1A2 = target: T2, CYP1A2 (Homo sapiens, UniProt P05177); assay: as above; type: in vitro ADME; conditions: human liver microsomes, substrate Phenacetin
# T2 construct: 0.05 mg/mL liver microsomes (BioIVT, IHG) phosphate buffer solution; tissue BioIVT IHG; host or cells: human liver microsomes
# T2 sequence (P05177 1-516): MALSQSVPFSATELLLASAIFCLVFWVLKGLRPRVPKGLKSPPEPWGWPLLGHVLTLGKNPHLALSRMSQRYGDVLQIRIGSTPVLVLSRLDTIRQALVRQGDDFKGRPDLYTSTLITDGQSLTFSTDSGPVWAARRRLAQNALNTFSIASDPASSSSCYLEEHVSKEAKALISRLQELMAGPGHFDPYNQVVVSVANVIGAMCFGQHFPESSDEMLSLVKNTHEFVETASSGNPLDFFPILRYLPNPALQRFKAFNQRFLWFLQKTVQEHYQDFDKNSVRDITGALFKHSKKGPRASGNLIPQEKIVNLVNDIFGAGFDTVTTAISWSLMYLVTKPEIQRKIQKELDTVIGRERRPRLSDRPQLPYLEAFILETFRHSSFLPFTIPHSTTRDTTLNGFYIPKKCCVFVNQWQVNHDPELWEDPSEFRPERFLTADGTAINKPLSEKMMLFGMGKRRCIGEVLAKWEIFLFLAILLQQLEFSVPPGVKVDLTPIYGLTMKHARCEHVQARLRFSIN
# Procedure: as §1, §2, §3, §4, §5, §6
# CYP2D6 = target: T3, CYP2D6 (Homo sapiens, UniProt P10635); assay: as above; type: in vitro ADME; conditions: human liver microsomes, substrate Dextromethorphan
# T3 construct: 0.05 mg/mL liver microsomes (BioIVT, IHG) phosphate buffer solution; tissue BioIVT IHG; host or cells: human liver microsomes
# T3 sequence (P10635 whole entry): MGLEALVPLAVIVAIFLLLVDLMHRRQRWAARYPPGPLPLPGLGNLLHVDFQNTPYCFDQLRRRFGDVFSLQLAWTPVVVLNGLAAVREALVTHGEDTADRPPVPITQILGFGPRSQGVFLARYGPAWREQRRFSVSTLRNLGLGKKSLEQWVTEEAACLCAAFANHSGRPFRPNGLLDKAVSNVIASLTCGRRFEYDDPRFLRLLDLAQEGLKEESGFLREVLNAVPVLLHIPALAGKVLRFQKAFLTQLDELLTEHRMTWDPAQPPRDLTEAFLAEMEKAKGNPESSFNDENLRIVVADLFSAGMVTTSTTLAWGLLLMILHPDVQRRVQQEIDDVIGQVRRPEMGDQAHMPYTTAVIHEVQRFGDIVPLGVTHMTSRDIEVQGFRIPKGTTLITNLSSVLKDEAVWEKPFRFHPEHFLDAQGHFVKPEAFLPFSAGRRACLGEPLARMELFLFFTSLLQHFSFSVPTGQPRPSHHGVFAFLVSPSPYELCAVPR
# Procedure: as §1, §2, §3, §4, §5, §6
# CYP2C19 = target: T4, CYP2C19 (Homo sapiens, UniProt P33261); assay: as above; type: in vitro ADME; conditions: human liver microsomes, substrate Mephenytoin
# T4 construct: (using 0.2 mg/mL liver microsomes for CYP2C19); tissue BioIVT IHG; host or cells: human liver microsomes
# T4 sequence (P33261 whole entry): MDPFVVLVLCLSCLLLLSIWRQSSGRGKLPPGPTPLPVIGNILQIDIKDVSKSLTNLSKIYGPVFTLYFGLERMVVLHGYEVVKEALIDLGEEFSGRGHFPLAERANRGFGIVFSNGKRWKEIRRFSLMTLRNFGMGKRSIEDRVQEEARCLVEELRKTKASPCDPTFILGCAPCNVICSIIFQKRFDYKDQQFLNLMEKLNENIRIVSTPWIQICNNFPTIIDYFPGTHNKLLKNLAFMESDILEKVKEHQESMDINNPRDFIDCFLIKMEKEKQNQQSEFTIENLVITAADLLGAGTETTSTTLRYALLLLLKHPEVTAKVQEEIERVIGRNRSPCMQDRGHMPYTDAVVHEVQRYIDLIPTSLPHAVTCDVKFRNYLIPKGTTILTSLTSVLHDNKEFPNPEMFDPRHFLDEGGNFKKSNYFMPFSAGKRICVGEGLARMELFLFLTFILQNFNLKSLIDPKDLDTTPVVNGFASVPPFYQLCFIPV
# Procedure: as §1, §2, §3, §4, §5, §6
# CYP3A4 = target: T5, CYP3A4 (Homo sapiens, UniProt P08684); assay: as above; type: in vitro ADME; conditions: liver microsomes
# T5 construct: 0.05 mg/mL liver microsomes (BioIVT, IHG) phosphate buffer solution; tissue BioIVT IHG; host or cells: human liver microsomes
# T5 sequence (P08684 whole entry): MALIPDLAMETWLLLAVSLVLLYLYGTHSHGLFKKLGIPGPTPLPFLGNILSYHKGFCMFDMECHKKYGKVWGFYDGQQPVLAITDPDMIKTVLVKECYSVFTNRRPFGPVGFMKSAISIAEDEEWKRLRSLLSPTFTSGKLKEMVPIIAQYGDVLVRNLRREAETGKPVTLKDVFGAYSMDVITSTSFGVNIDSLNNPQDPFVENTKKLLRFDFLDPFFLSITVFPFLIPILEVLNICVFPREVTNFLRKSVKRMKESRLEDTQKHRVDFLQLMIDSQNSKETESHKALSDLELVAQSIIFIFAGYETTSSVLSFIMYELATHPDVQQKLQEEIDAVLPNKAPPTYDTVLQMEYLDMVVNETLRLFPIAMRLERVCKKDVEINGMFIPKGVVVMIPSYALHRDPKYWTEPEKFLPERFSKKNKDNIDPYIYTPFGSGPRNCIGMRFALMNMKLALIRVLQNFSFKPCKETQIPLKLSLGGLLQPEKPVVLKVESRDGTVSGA
# Procedure: as §1, §2, §3, §4, §5, §6
# hERG ion channel = target: T6, hERG ion channel (Homo sapiens, UniProt Q12809); assay: Inhibitory effect on hERG ion channels (manual patch clamp); type: cell-based; conditions: HEK293 cells stably expressing hERG channels, read-out: hERG (IC50, manupatch)
# T6 construct: host or cells: HEK293
# T6 sequence (Q12809 whole entry): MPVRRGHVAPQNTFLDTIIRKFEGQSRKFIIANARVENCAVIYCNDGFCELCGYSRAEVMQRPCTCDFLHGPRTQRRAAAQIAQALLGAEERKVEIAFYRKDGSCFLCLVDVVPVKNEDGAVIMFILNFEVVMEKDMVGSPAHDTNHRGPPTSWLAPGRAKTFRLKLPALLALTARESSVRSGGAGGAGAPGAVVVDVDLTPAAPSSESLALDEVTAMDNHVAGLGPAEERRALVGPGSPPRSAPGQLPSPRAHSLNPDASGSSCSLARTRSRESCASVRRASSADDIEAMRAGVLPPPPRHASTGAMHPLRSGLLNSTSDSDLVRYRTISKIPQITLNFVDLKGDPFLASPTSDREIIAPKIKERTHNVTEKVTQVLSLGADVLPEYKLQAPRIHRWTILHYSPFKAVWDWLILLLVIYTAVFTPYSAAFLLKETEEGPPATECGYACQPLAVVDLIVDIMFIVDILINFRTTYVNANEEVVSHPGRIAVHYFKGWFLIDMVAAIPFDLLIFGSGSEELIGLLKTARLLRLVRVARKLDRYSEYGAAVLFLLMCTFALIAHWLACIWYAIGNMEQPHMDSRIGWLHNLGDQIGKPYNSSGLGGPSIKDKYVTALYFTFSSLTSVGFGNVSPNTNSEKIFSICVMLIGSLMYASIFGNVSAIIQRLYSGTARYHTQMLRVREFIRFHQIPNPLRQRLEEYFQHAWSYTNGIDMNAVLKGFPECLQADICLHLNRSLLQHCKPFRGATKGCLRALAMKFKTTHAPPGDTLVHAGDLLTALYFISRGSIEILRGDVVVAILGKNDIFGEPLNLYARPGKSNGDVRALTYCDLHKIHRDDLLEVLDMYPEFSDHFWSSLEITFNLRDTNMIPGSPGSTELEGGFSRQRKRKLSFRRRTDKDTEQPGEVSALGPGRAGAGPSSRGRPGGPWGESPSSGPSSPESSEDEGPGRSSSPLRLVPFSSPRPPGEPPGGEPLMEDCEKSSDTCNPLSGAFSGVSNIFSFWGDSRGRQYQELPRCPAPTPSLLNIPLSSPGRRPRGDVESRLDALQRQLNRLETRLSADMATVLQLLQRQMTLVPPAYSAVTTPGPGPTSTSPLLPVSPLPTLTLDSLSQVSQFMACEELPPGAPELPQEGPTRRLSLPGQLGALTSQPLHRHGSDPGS
# Procedure: In this experiment, the inhibitory effect of the compound on the hERG ion channel was detected by a manual patch clamp electrophysiological method, and the cardiac safety was evaluated based on the single concentration inhibition rate or IC50 of the compound.
# The cells used in this experiment were HEK293 cell lines transfected with hERG cDNA and stably expressing hERG channels (#60187, provided by BPS, P3-P23 generations were used for experimental research). The cells was cultured in a medium containing the following components: MEM medium, 10% (v/v) inactivated fetal bovine serum, 1 mM sodium pyruvate, 500 µg geneticin, 0.1 mM non-essential amino acids, 100 U penicillin-streptomycin. HEK293 hERG cells were grown in a culture flask containing the above culture solution and cultured in an incubator at 37°C and 5% CO2. […]
# A manual patch clamp system (HEKA EPC-10 signal amplifier and digital conversion system, purchased from HEKA Electronics, Germany) was used to record whole-cell currents in electrophysiological experiments. […] After the hERG current recorded in the above steps reached stabilization under the continuous perfusion of extracellular solution in the recording chamber, different concentrations of the compound to be tested could be perfused until the inhibitory effect of the drug on the hERG current reached a stable state. […]
smiles,measurement,setting,value
"Cn1c(=O)n(C2CCC(=O)NC2=O)c2cccc(C#CCOC3CCN(C[C@H]4CC[C@H](n5cc(NC(=O)c6cnn7ccc(N8C[C@H]9C[C@@H]8CO9)nc67)c(C(F)F)n5)CC4)CC3)c21 (stereo partly shown) [KT474, reference compound]",IC50,CYP2C9,9.61 µM
same,IC50,CYP1A2,> 30 µM
same,IC50,CYP2D6,> 30 µM
same,IC50,CYP2C19,3.81 µM
same,IC50,"CYP3A4; substrate Midazolam, read-out: IC50 (µM) CYP3A4-M",15.1 µM
same,IC50,"CYP3A4; substrate Testosterone, read-out: IC50 (µM) CYP3A4-T",> 30 µM
same,IC50,hERG ion channel,2.65 µM
